Measured values as given in patent publication US20110086886A2, “INSECTICIDAL ISOXAZOLINES” (Bayer CropScience AG, priority 2006, published 2011).

What was measured:
Lucilia cuprina larvae = experiment: Test for Lucilia cuprina larvae; format: in vivo; conditions: 48 h, read-out: larval mortality
Method: (§1) 20 mg of active compound are dissolved in 1 ml of dimethyl sulphoxide. To prepare a suitable formulation (e.g. 100 ppm), the active compound solution is diluted to the respective desired concentration with water (e.g. 1 part by weight active compound solution with 199 parts by weight water).
Approximately 20 Lucilia cuprina larvae are introduced into a test tube which contains approx. 1 cm^3 horse meat and 0.5 ml of the active compound preparation to be tested. After 48 hours, the efficacy of the active compound preparation is determined as % larval mortality. 0%: no larvae were killed, 100%: all larvae were killed.

Spodoptera litura larvae = experiment: Test for Spodoptera litura larvae (leaf dip); format: in vivo; conditions: effective component concentration of 500 ppm, 3rd-instar larvae on dipped sweet potato leaves, after 7 days; for pest or weed control at 500 ppm: foliar, 168 h, read-out: insecticidal ratio
Method: (§2) In order to obtain a preparation of a proper active compound, 1 part by weight of an active compound was mixed with the stated amounts of solvent and emulsifier and the mixture was diluted to a specified concentration with water.
The leaves of sweat potatoes were dipped in the test solution diluted to a specified concentration with water. After these leaves were dried in air to remove the chemical solution, they were placed in a Petri dish of 9 cm in diameter, in which 10 Spodoptera litura larvae of the 3rd-instar were set free. The Petri dish was placed in a thermostatic chamber kept at 25° C. and the leaves of sweat potatoes were added after 2 days and 4 days, to examine the number of dead larvae after 7 days, thereby calculating the insecticidal ratio of the chemical solution.
In this test, an average of the results in two Petri dishes in one section was calculated.

[1] = system: Ctenocephalides felis, strain "Georgi"; experiment: Test for cat fleas / oral uptake; format: in vivo; conditions: in Bos taurus, 48 h, read-out: kill (mortality)
Method: as §1, with “of the” for “of”, “dimethylsulphoxide” for “of dimethyl sulphoxide.”, “cattle blood” for “water”, “cattle blood).” for “water).”
20 unfed adult fleas (Ctenocephalides felis, strain “Georgi”) are placed into a chamber (Ø 5 cm) whose top and bottom are closed with gauze. A metal cylinder whose underside is covered with parafilm is placed onto the chamber. The cylinder contains the blood/active compound formulation which can be taken up by the fleas through the parafilm membrane. Whereas the blood is warmed to 37° C., the temperature in the area of the flea chambers is adjusted to room temperature.
After the desired time the mortality in % is determined. Here 100% means that all fleas were killed; 0% means that no fleas were killed.

Aulacophora femoralis = experiment: Test for Aulacophora femoralis (spray test); format: in vivo; conditions: effective component concentration of 500 ppm; 2nd-instar, dipped cucumber leaves; after 7 days
Method: as §2
The leaves of cucumbers were dipped in the aqueous solution diluted to a specified concentration with water. After the chemical solution was dried in air, these leaves were placed in a plastic cup, in which sterilized black soil was placed. 5 Aulacophora femoralis of the 2nd-instar were set free in the soil, to examine the number of dead insects after 7 days, thereby calculating the insecticidal ratio of the chemical solution.

[2] = system: Myzus persicas resistant to organic phosphorous agents and carbamate agents; experiment: Test for Myzus persicas resistant to organic phosphorous agents and carbamate agents; format: in vivo; conditions: effective component concentration of 500 ppm; spray on egg plant; 24 hours after spraying
Method: as §2
About 200 head per plantlet of cultivated Myzus persicas resistant to phosphorous agents and carbamate agents were inoculated on an egg plant. The aqueous dilution containing the above prepared active compound having a specified concentration was sprayed on the egg plant in a sufficient amount by a spray gun one day after the inoculation. The egg plant was allowed to stand in a 28° C. green house, to calculate the insecticidal ratio 24 hours after the solution was sprayed. In this case, the test was made twice repeatedly.

Row | Structure (SMILES) | insecticidal ratio (Aulacophora femoralis) [%] | insecticidal ratio (Spodoptera litura larvae) [%] | other results
1 | FC(F)(F)c1nnnn1-c1ccc(C2=NOC(c3cc(Cl)cc(Cl)c3)(C(F)(F)F)C2)cc1 (stereo not shown) |  |  | melting point: 147 to 151 °C
2 | N#Cc1cc(C2=NOC(c3cc(Cl)cc(Cl)c3)(C(F)(F)F)C2)ccc1-n1cc(Cl)cn1 (stereo not shown) [Compound 17] |  |  | mortality at 100 ppm (Lucilia cuprina larvae): > 95%; pest or weed control at 500 ppm (Spodoptera litura larvae): 100%; mortality at 100 ppm [1]: > 80%
3 | N#Cc1cc(C2=NOC(c3cc(C(F)(F)F)cc(C(F)(F)F)c3)(C(F)(F)F)C2)ccc1-n1cncn1 (racemic) [Compound 135] | 100 | 100 | insecticidal ratio [2]: 100%
4 | N#Cc1cc(C2=NOC(c3cc(Cl)cc(Cl)c3)(C(F)(F)F)C2)ccc1-n1cnnn1 (stereo not shown) [Compound 153] | 100 | 100 | insecticidal ratio [2]: 100%
5 | N#Cc1cc(C2=NOC(c3cc(Cl)cc(Cl)c3)(C(F)(F)F)C2)ccc1-n1cncn1 (stereo not shown) [Compound 101, 5-[5-(3,5-dichlorophenyl)-5-(trifluoromethyl)-4,5-dihydroisoxazol-3-yl)-2-(1H-1,2,4-triazol-1-yl)benzonitrile] | 100 |  | pest or weed control at 500 ppm (Spodoptera litura larvae): 100%; insecticidal ratio [2]: 100%
6 | N#Cc1cc(C2=NOC(c3cccc(C(F)(F)F)c3)(C(F)(F)F)C2)ccc1-n1cc([N+](=O)[O-])cn1 (stereo not shown) [Compound 38] | 100 | 100 | insecticidal ratio [2]: 100%
7 | FC(F)(F)C1(c2cc(Cl)cc(Cl)c2)CC(c2ccc(-n3cccc3)cc2)=NO1 (stereo not shown) |  |  | melting point: 206 to 208 °C
8 | FC(F)(F)C1(c2cc(Cl)cc(Cl)c2)CC(c2ccc(-n3cncn3)cc2)=NO1 (racemic) [Compound 91] | 100 | 100 | 
9 | N#Cc1cc(C2=NOC(c3cc(Cl)cc(Cl)c3)(C(F)(F)F)C2)ccc1-n1cc(N)cn1 (stereo not shown) [Compound 181] | 100 | 100 | 
10 | FC(F)(F)c1cccc(C2(C(F)(F)F)CC(c3ccc(-n4cncn4)cc3)=NO2)c1 (racemic) [Compound 122] | 100 | 100 | 
11 | N#Cc1cc(C2=NOC(c3cccc(C(F)(F)F)c3)(C(F)(F)F)C2)ccc1-n1cnnn1 (stereo not shown) [Compound 160] | 100 | 100 | 
12 | FC(F)(F)C1(c2cccc(Cl)c2)CC(c2ccc(-n3cncn3)cc2)=NO1 (stereo not shown) [Compound 86] | 100 | 100 | 
13 | O=[N+]([O-])c1cc(C2=NOC(c3cc(Cl)cc(Cl)c3)(C(F)(F)F)C2)ccc1-n1cncn1 (stereo not shown) [Compound 104, 1-{4-[5-[3,5-dichlorophenyl]-5-(trifluoromethyl)-4,5-dihydroisoxazol-3-yl]-2-nitrophenyl}-1H-1,2,4-triazole] | 100 |  | pest or weed control at 500 ppm (Spodoptera litura larvae): 100%
14 | CCC(=O)Nc1cc(C2=NOC(c3cc(Cl)cc(Cl)c3)(C(F)(F)F)C2)ccc1-n1cncn1 (racemic) [Compound 107] | 100 | 100 | 
